Non-standard residues stand in square brackets, D forms with d. Residues, ends and D or L forms follow the SMILES beside them. *: point of attachment. 1Nal = N[C@@H](Cc1cccc2ccccc12)C(=O)O; Bn = c1ccc(C*)cc1
Tests used:
[1] = molecular target: T1, endothelin receptor B (ETB) (Bos taurus, UniProt P28088); assay: Assay of affinity for receptor (2): binding activity on ETB receptor *1, 125I-labeled endothelin-1, bovine brain membrane fraction; conditions: 1 hour; for Binding Activity on ET Receptor (R. act.) ETB*1: specific activity, taking the binding activity of the compound of Example 8 on receptor B as 100, 25°C
T1 construct: A membrane fraction prepared from the bovine brain; from tissue; host or cells: bovine brain membrane fraction
T1 sequence (P28088 27-441): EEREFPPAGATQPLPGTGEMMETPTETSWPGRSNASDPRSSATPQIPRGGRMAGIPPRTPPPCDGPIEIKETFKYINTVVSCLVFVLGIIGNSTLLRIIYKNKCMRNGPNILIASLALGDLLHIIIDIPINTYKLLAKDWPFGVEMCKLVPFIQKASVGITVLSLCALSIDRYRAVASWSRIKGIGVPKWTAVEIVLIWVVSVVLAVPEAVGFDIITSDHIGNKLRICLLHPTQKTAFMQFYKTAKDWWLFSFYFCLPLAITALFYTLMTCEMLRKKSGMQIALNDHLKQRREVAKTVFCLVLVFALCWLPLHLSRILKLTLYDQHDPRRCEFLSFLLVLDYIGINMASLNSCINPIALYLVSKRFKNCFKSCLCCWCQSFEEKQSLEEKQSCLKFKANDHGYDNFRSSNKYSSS
Description: Assay of Affinity for Receptor (2) ... Binding Activity on ETB Receptor *1
A membrane fraction prepared from the bovine brain was diluted to 0.15 mg/ml by using a buffer solution for assay, and 100 µl of the resulting suspension of the membrane fraction was poured into each assay tube to use for assay. To this suspension of the membrane fraction was added 2 µl of 5 nM ^125I labeled endothelin-1 solution. Further, 3 µl of a test peptide solution was added thereto, followed by incubation at a temperature of 25°C for 1 hour. Then, the resulting suspension was diluted with 900 µl of the buffer solution for assay cooled with ice, and thereafter separated into a supernatant and a precipitate by centrifugation at 12,000 X g for 10 minutes. Cell membranes and an endothelin receptor B (ETB) embedded therein were contained in the precipitate, and radioactive iodine-labeled endothelin bound to the receptor was also recovered in the precipitate. Accordingly, the amount of radioactive iodine-labeled endothelin bound to the endothelin receptor B (ETB) was determined by measuring the amount of radioactive iodine contained in the precipitate with a gamma-ray counter. The numerical value of ETB shown in Table 1 is the value of specific activity, taking the binding activity of the compound of Example 8 on the receptor B as 100.

[2] = molecular target: T2, endothelin receptor A (ETA) (Sus scrofa, UniProt Q29010); assay: Assay of affinity for receptor (1): binding activity on ETA receptor, 125I-labeled endothelin-1, porcine heart membrane fraction; design: key: relative specific activity; reference cyclic pentapeptide ETA binding = 1.0; conditions: specific activity, taking the binding activity of control cyclo[-D-Glu-Ala-D-aIle-Leu-D-Trp-] on receptor A as 1.0, 25°C, 1 hour
T2 construct: A membrane fraction prepared from the porcine heart; from tissue; host or cells: porcine heart membrane fraction
T2 sequence (Q29010 21-427): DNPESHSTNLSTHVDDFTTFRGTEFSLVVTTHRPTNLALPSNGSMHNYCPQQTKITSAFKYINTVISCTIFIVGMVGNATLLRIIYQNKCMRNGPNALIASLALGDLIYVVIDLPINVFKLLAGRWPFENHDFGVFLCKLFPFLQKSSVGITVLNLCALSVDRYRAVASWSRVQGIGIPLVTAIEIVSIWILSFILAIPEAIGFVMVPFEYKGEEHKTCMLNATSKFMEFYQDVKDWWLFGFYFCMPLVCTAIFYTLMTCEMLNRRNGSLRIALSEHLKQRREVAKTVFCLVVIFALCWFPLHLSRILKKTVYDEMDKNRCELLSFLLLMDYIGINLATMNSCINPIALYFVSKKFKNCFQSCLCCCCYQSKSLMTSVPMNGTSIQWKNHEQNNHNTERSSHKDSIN
In short: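 Porcine heart membranes (0.15 mg/ml) incubated with 125I-endothelin-1 and test peptide for 1 h at 25°C, then centrifuged; pellet-bound radioactivity counted by gamma counter. Values given as specific activity relative to reference cyclo[-D-Glu-Ala-D-aIle-Leu-D-Trp-], set at 1.0.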

Row | SMILES | IC50 ([1]; 25°C) [µM] | Binding Activity on ET Receptor (R. act.) ETB*1 [1] | Binding Activity on ET Receptor (R. act.) ETA [2]
1 | CC(C)C[C@@H]1NC(=O)[C@@H](CC(C)C)NC(=O)[C@H](CC(=O)O)NC(=O)[C@H](Cc2c[nH]c3ccccc23)NC(=O)[C@@H](CC(=O)O)NC(=O)[C@@H](Cc2c[nH]c3ccccc23)NC1=O [Example 8, cyclo[-D-Asp-Trp-Asp-D-Leu-Leu-D-Trp-]] (cyclo(D[dL]L[dW][dD]W)) | 3 | 100 | 76
2 | CC(C)C[C@@H]1NC(=O)[C@@H](CC(C)C)NC(=O)[C@H](CC(=O)O)NC(=O)[C@H](Cc2cccc3ccccc23)NC(=O)[C@@H](CC(=O)O)NC(=O)[C@@H](Cc2c[nH]c3ccccc23)NC1=O [Example 23, Cyclo[-D-Asp-Nal(1)-Asp-D-Leu-Leu-D-Trp-]] (cyclo([1Nal]D[dL]L[dW][dD])) | – | 11 | 8.3
3 | CC(C)C[C@@H]1NC(=O)[C@@H](CC(C)C)NC(=O)[C@H](CCC(=O)O)NC(=O)[C@H](Cc2c[nH]c3ccccc23)NC(=O)[C@@H](CC(=O)O)NC(=O)[C@@H](Cc2c[nH]c3ccccc23)NC1=O [Example 34, Cyclo[-D-Asp-Trp-Glu-D-Leu-Leu-D-Trp-]] (cyclo(E[dL]L[dW][dD]W)) | – | 77 | 20
4 | CC(C)C[C@@H]1NC(=O)[C@H](Cc2c[nH]c3ccccc23)NC(=O)[C@@H](CC(=O)O)NC(=O)[C@@H](Cc2c[nH]c3ccccc23)NC(=O)[C@H](CC(C)C)NC(=O)[C@@H](CC(C)C)NC1=O [Example 35, Cyclo[-D-Asp-Trp-Leu-D-Leu-Leu-D-Trp-]] (cyclo(L[dL]L[dW][dD]W)) | – | 52 | 9.1
5 | CC(C)C[C@@H]1NC(=O)[C@@H](CC(C)C)NC(=O)[C@@H]2CCCN2C(=O)[C@H](Cc2c[nH]c3ccccc23)NC(=O)[C@@H](CC(=O)O)NC(=O)[C@@H](Cc2c[nH]c3ccccc23)NC1=O [Example 36, Cyclo[-D-Asp-Trp-Pro-D-Leu-Leu-D-Trp-]] (cyclo(L[dW][dD]WP[dL])) | – | 40 | 17
6 | CC(C)C[C@@H]1NC(=O)[C@@H](CC(C)C)NC(=O)[C@H](CO)NC(=O)[C@H](Cc2c[nH]c3ccccc23)NC(=O)[C@@H](CC(=O)O)NC(=O)[C@@H](Cc2c[nH]c3ccccc23)NC1=O [Example 37, Cyclo[-D-Asp-Trp-Ser-D-Leu-Leu-D-Trp-]] (cyclo(L[dW][dD]WS[dL])) | – | 22 | 24
7 | CC(C)C[C@@H]1NC(=O)[C@@H](CC(C)C)NC(=O)[C@H](COCc2ccccc2)NC(=O)[C@H](Cc2c[nH]c3ccccc23)NC(=O)[C@@H](CC(=O)O)NC(=O)[C@@H](Cc2c[nH]c3ccccc23)NC1=O [Example 38, Cyclo[-D-Asp-Trp-Ser(Bzl)-D-Leu-Leu-D-Trp-]] (cyclo(L[dW][dD]WS(Bn)[dL])) | – | 66 | 13

Source: patent EP0552417B1, “Cyclic peptides and use thereof” (priority 1991, dated 1993)
